Experimental findings from ChEMBL document CHEMBL1150461, “Synthesis of new 3-thiosubstituted carbacephem antibiotics and their activity against penicillin resistant Streptococcus pneumoniae” (1997) are described below.

≈ marks a conversion by molar mass, not a printed value. A value given as a limit tells only on which side of the number the result lay.

The first test deals with Streptococcus pneumoniae. Briefly: In vitro minimum inhibitory concentration against penicillin intermediate Streptococcus pneumoniae strains (number of strains = 3). The format is functional.
For the compound `N[C@@H](C(=O)N[C@@H]1C(=O)N2C(C(=O)O)=C(Sc3ccccn3)CC[C@H]12)c1ccccc1`, the MIC (commonly the lowest concentration found to suppress growth) is 1 µg/mL (≈ 2.36 µM).

For `CCSc1nnc(SC2=C(C(=O)O)N3C(=O)[C@@H](NC(=O)[C@H](N)c4ccccc4)[C@H]3CC2)s1`, the MIC came to 0.25 µg/mL (≈ 0.509 µM).

`N[C@@H](C(=O)N[C@@H]1C(=O)N2C(C(=O)O)=C(Sc3ccncc3)CC[C@H]12)c1ccccc1` gave an MIC of 0.25 µg/mL (≈ 0.589 µM).

As for `N[C@@H](C(=O)N[C@@H]1C(=O)N2C(C(=O)O)=C(Sc3cccs3)CC[C@H]12)c1ccccc1`, the MIC worked out at 2 µg/mL (≈ 4.66 µM).

`N[C@@H](C(=O)N[C@@H]1C(=O)N2C(C(=O)O)=C(Sc3nncs3)CC[C@H]12)c1ccccc1`: the MIC was 0.25 µg/mL (≈ 0.579 µM).

`N[C@@H](C(=O)N[C@@H]1C(=O)N2C(C(=O)O)=C(Sc3ccccc3CO)CC[C@H]12)c1ccccc1`: the MIC turned out to be 2 µg/mL (≈ 4.41 µM).

In turn, `C[n+]1ccc(SC2=C(C(=O)[O-])N3C(=O)[C@@H](NC(=O)[C@H](N)c4ccccc4)[C@H]3CC2)cc1` returned an MIC of 1 µg/mL (≈ 2.28 µM).

Turning to `N[C@@H](C(=O)N[C@@H]1C(=O)N2C(C(=O)O)=C(Sc3ccccc3Br)CC[C@H]12)c1ccccc1`, the MIC stood at 0.25 µg/mL (≈ 0.498 µM).

As to `N[C@@H](C(=O)N[C@@H]1C(=O)N2C(C(=O)O)=C(Sc3nnc(SCC4CC4)s3)CC[C@H]12)c1ccccc1`, the MIC is 0.06 µg/mL (≈ 0.116 µM). Compared with the last compound, the MIC is about 4.2-fold lower.

The compound `CSC1=C(C(=O)O)N2C(=O)[C@@H](NC(=O)[C@H](N)c3ccccc3)[C@H]2CC1` gave an MIC of 8 µg/mL (≈ 22.1 µM).

Turning to `N[C@@H](C(=O)N[C@@H]1C(=O)N2C(C(=O)O)=C(Sc3cnns3)CC[C@H]12)c1ccccc1`, the MIC turned out to be 0.25 µg/mL (≈ 0.579 µM). This MIC lies about 32-fold lower than the previous one.

The compound `Nc1nnc(SC2=C(C(=O)O)N3C(=O)[C@@H](NC(=O)[C@H](N)c4ccccc4)[C@H]3CC2)s1` had an MIC of 0.5 µg/mL (≈ 1.12 µM).

As for `Cn1ccnc1SC1=C(C(=O)O)N2C(=O)[C@@H](NC(=O)[C@H](N)c3ccccc3)[C@H]2CC1`, the MIC came out at 8 µg/mL (≈ 18.7 µM).

`N[C@@H](C(=O)N[C@@H]1C(=O)N2C(C(=O)O)=C(Sc3ncccn3)CC[C@H]12)c1ccccc1` registered an MIC of 0.5 µg/mL (≈ 1.18 µM).

The compound `N[C@@H](C(=O)N[C@@H]1C(=O)N2C(C(=O)O)=C(Sc3ccccc3)CC[C@H]12)c1ccccc1` showed an MIC of 1 µg/mL (≈ 2.36 µM).

The compound `N=C(N)SCc1ccccc1SC1=C(C(=O)O)N2C(=O)[C@@H](NC(=O)[C@H](N)c3ccccc3)[C@H]2CC1` registered a minimal inhibitory concentration (MIC) of 0.25 µg/mL (≈ 0.489 µM). Compared with the last compound, the MIC is about 4-fold lower.

For `Cn1cnnc1SC1=C(C(=O)O)N2C(=O)[C@@H](NC(=O)[C@H](N)c3ccccc3)[C@H]2CC1`, the MIC was 4 µg/mL (≈ 9.34 µM).

Turning to `N[C@@H](C(=O)N[C@@H]1C(=O)N2C(C(=O)O)=C(Sc3nc4ccccc4s3)CC[C@H]12)c1ccccc1`, the MIC was 4 µg/mL (≈ 8.32 µM).

`Cc1nnc(SC2=C(C(=O)O)N3C(=O)[C@@H](NC(=O)[C@H](N)c4ccccc4)[C@H]3CC2)s1` showed an MIC of 1 µg/mL (≈ 2.24 µM). Against the preceding compound, the MIC is about 4-fold lower.

The compound `CSc1nnc(SC2=C(C(=O)O)N3C(=O)[C@@H](NC(=O)[C@H](N)c4ccccc4)[C@H]3CC2)s1` gave an MIC of 0.06 µg/mL (≈ 0.126 µM).

Compound `N[C@@H](C(=O)N[C@@H]1C(=O)N2C(C(=O)O)=C(Sc3nccs3)CC[C@H]12)c1ccccc1` returned an MIC of 2 µg/mL (≈ 4.65 µM).

As to `N[C@@H](C(=O)N[C@@H]1C(=O)N2C(C(=O)O)=C(Cl)CC[C@H]12)c1ccccc1` [LORACARBEF ANHYDROUS], the minimal inhibitory concentration (MIC) came out at 8 µg/mL (≈ 22.9 µM).

The test system of the next test is Streptococcus pneumoniae. Briefly: In vitro minimum inhibitory concentration against penicillin resistant Streptococcus pneumoniae strains (PRSP) (number of strains = 5). In kind it is functional.
For `N[C@@H](C(=O)N[C@@H]1C(=O)N2C(C(=O)O)=C(Sc3ccccn3)CC[C@H]12)c1ccccc1`, the MIC was 2 µg/mL (≈ 4.71 µM).

For `CCSc1nnc(SC2=C(C(=O)O)N3C(=O)[C@@H](NC(=O)[C@H](N)c4ccccc4)[C@H]3CC2)s1`, the MIC turned out to be 0.5 µg/mL (≈ 1.02 µM).

`N[C@@H](C(=O)N[C@@H]1C(=O)N2C(C(=O)O)=C(Sc3ccncc3)CC[C@H]12)c1ccccc1` came in with an MIC of 4 µg/mL (≈ 9.42 µM).

As for `N[C@@H](C(=O)N[C@@H]1C(=O)N2C(C(=O)O)=C(Sc3cccs3)CC[C@H]12)c1ccccc1`, the MIC amounted to 16 µg/mL (≈ 37.3 µM).

As for `N[C@@H](C(=O)N[C@@H]1C(=O)N2C(C(=O)O)=C(Sc3nncs3)CC[C@H]12)c1ccccc1`, the MIC is 1 µg/mL (≈ 2.32 µM). Against the preceding compound, the MIC is about 16-fold lower.

Regarding `N[C@@H](C(=O)N[C@@H]1C(=O)N2C(C(=O)O)=C(Sc3ccccc3CO)CC[C@H]12)c1ccccc1`, the MIC turned out to be 4 µg/mL (≈ 8.82 µM).

`C[n+]1ccc(SC2=C(C(=O)[O-])N3C(=O)[C@@H](NC(=O)[C@H](N)c4ccccc4)[C@H]3CC2)cc1` yielded a minimum inhibitory concentration (MIC) of 4 µg/mL (≈ 9.12 µM).

On to `N[C@@H](C(=O)N[C@@H]1C(=O)N2C(C(=O)O)=C(Sc3ccccc3Br)CC[C@H]12)c1ccccc1`, for which the MIC is 2 µg/mL (≈ 3.98 µM).

For `N[C@@H](C(=O)N[C@@H]1C(=O)N2C(C(=O)O)=C(Sc3nnc(SCC4CC4)s3)CC[C@H]12)c1ccccc1`, the MIC turned out to be 0.25 µg/mL (≈ 0.483 µM).

Take `CSC1=C(C(=O)O)N2C(=O)[C@@H](NC(=O)[C@H](N)c3ccccc3)[C@H]2CC1`: the MIC was over 16 µg/mL.

The compound `N[C@@H](C(=O)N[C@@H]1C(=O)N2C(C(=O)O)=C(Sc3cnns3)CC[C@H]12)c1ccccc1` had an MIC of 1 µg/mL (≈ 2.32 µM).

In turn, `Nc1nnc(SC2=C(C(=O)O)N3C(=O)[C@@H](NC(=O)[C@H](N)c4ccccc4)[C@H]3CC2)s1` showed an MIC of 2 µg/mL (≈ 4.48 µM).

Compound `Cn1ccnc1SC1=C(C(=O)O)N2C(=O)[C@@H](NC(=O)[C@H](N)c3ccccc3)[C@H]2CC1` showed an MIC of over 16 µg/mL.

As to `N[C@@H](C(=O)N[C@@H]1C(=O)N2C(C(=O)O)=C(Sc3ncccn3)CC[C@H]12)c1ccccc1`, the MIC was 4 µg/mL (≈ 9.4 µM).

Regarding `N[C@@H](C(=O)N[C@@H]1C(=O)N2C(C(=O)O)=C(Sc3ccccc3)CC[C@H]12)c1ccccc1`, the MIC was 4 µg/mL (≈ 9.45 µM).

In the case of `N=C(N)SCc1ccccc1SC1=C(C(=O)O)N2C(=O)[C@@H](NC(=O)[C@H](N)c3ccccc3)[C@H]2CC1`, the MIC is 0.5 µg/mL (≈ 0.977 µM). This MIC lies about 8-fold lower than the previous one.

In turn, `Cn1cnnc1SC1=C(C(=O)O)N2C(=O)[C@@H](NC(=O)[C@H](N)c3ccccc3)[C@H]2CC1` returned an MIC of over 16 µg/mL.

`N[C@@H](C(=O)N[C@@H]1C(=O)N2C(C(=O)O)=C(Sc3nc4ccccc4s3)CC[C@H]12)c1ccccc1` registered an MIC of 8 µg/mL (≈ 16.6 µM).

For `Cc1nnc(SC2=C(C(=O)O)N3C(=O)[C@@H](NC(=O)[C@H](N)c4ccccc4)[C@H]3CC2)s1`, the MIC is 1 µg/mL (≈ 2.24 µM).

As for `CSc1nnc(SC2=C(C(=O)O)N3C(=O)[C@@H](NC(=O)[C@H](N)c4ccccc4)[C@H]3CC2)s1`, the MIC is 0.25 µg/mL (≈ 0.523 µM).

Compound `N[C@@H](C(=O)N[C@@H]1C(=O)N2C(C(=O)O)=C(Sc3nccs3)CC[C@H]12)c1ccccc1` displayed an MIC of 4 µg/mL (≈ 9.29 µM).

Compound `N[C@@H](C(=O)N[C@@H]1C(=O)N2C(C(=O)O)=C(Cl)CC[C@H]12)c1ccccc1` [LORACARBEF ANHYDROUS] registered an MIC of over 16 µg/mL.

The test system of a further test is Streptococcus pneumoniae. Briefly: In vitro minimum inhibitory concentration against penicillin susceptible Streptococcus pneumoniae strains (number of strains = 3). The format is functional.
As to `N[C@@H](C(=O)N[C@@H]1C(=O)N2C(C(=O)O)=C(Sc3ccccn3)CC[C@H]12)c1ccccc1`, the MIC came out at 0.06 µg/mL (≈ 0.141 µM).

Turning to `CCSc1nnc(SC2=C(C(=O)O)N3C(=O)[C@@H](NC(=O)[C@H](N)c4ccccc4)[C@H]3CC2)s1`, the MIC worked out at 0.03 µg/mL (≈ 0.061 µM).

`N[C@@H](C(=O)N[C@@H]1C(=O)N2C(C(=O)O)=C(Sc3ccncc3)CC[C@H]12)c1ccccc1`: the MIC came out at 0.12 µg/mL (≈ 0.283 µM).

`N[C@@H](C(=O)N[C@@H]1C(=O)N2C(C(=O)O)=C(Sc3cccs3)CC[C@H]12)c1ccccc1` returned an MIC of 0.25 µg/mL (≈ 0.582 µM). Compared with the last compound, the MIC is about 2.1-fold higher.

For `N[C@@H](C(=O)N[C@@H]1C(=O)N2C(C(=O)O)=C(Sc3nncs3)CC[C@H]12)c1ccccc1`, the MIC was 0.06 µg/mL (≈ 0.139 µM).

In the case of `N[C@@H](C(=O)N[C@@H]1C(=O)N2C(C(=O)O)=C(Sc3ccccc3CO)CC[C@H]12)c1ccccc1`, the MIC was found to be 0.06 µg/mL (≈ 0.132 µM).

`C[n+]1ccc(SC2=C(C(=O)[O-])N3C(=O)[C@@H](NC(=O)[C@H](N)c4ccccc4)[C@H]3CC2)cc1` had an MIC of 0.25 µg/mL (≈ 0.57 µM).

As to `N[C@@H](C(=O)N[C@@H]1C(=O)N2C(C(=O)O)=C(Sc3ccccc3Br)CC[C@H]12)c1ccccc1`, the MIC was determined as 0.06 µg/mL (≈ 0.119 µM).

The compound `N[C@@H](C(=O)N[C@@H]1C(=O)N2C(C(=O)O)=C(Sc3nnc(SCC4CC4)s3)CC[C@H]12)c1ccccc1` came in with an MIC of under 0.03 µg/mL.

As to `CSC1=C(C(=O)O)N2C(=O)[C@@H](NC(=O)[C@H](N)c3ccccc3)[C@H]2CC1`, the MIC was 1 µg/mL (≈ 2.77 µM).

In turn, `N[C@@H](C(=O)N[C@@H]1C(=O)N2C(C(=O)O)=C(Sc3cnns3)CC[C@H]12)c1ccccc1` displayed an MIC of 0.06 µg/mL (≈ 0.139 µM).

With `Nc1nnc(SC2=C(C(=O)O)N3C(=O)[C@@H](NC(=O)[C@H](N)c4ccccc4)[C@H]3CC2)s1`, the MIC worked out at 0.06 µg/mL (≈ 0.134 µM).

The compound `Cn1ccnc1SC1=C(C(=O)O)N2C(=O)[C@@H](NC(=O)[C@H](N)c3ccccc3)[C@H]2CC1` came in with an MIC of 1 µg/mL (≈ 2.34 µM).

Compound `N[C@@H](C(=O)N[C@@H]1C(=O)N2C(C(=O)O)=C(Sc3ncccn3)CC[C@H]12)c1ccccc1` came in with an MIC of 0.12 µg/mL (≈ 0.282 µM).

On to `N[C@@H](C(=O)N[C@@H]1C(=O)N2C(C(=O)O)=C(Sc3ccccc3)CC[C@H]12)c1ccccc1`, for which the MIC turned out to be 0.06 µg/mL (≈ 0.142 µM). Compared with the last compound, the MIC is about 2-fold lower.

In turn, `N=C(N)SCc1ccccc1SC1=C(C(=O)O)N2C(=O)[C@@H](NC(=O)[C@H](N)c3ccccc3)[C@H]2CC1` registered an MIC of 0.02 µg/mL (≈ 0.0391 µM).

Consider `Cn1cnnc1SC1=C(C(=O)O)N2C(=O)[C@@H](NC(=O)[C@H](N)c3ccccc3)[C@H]2CC1`, for which the MIC amounted to 0.5 µg/mL (≈ 1.17 µM). Compared with the last compound, the MIC is about 25-fold higher.

`N[C@@H](C(=O)N[C@@H]1C(=O)N2C(C(=O)O)=C(Sc3nc4ccccc4s3)CC[C@H]12)c1ccccc1` came in with an MIC of 0.5 µg/mL (≈ 1.04 µM).

`Cc1nnc(SC2=C(C(=O)O)N3C(=O)[C@@H](NC(=O)[C@H](N)c4ccccc4)[C@H]3CC2)s1`: the MIC worked out at 0.03 µg/mL (≈ 0.0673 µM).

`CSc1nnc(SC2=C(C(=O)O)N3C(=O)[C@@H](NC(=O)[C@H](N)c4ccccc4)[C@H]3CC2)s1`: the MIC was under 0.03 µg/mL.

Take `N[C@@H](C(=O)N[C@@H]1C(=O)N2C(C(=O)O)=C(Sc3nccs3)CC[C@H]12)c1ccccc1`: the MIC was 0.12 µg/mL (≈ 0.279 µM).

For the compound `N[C@@H](C(=O)N[C@@H]1C(=O)N2C(C(=O)O)=C(Cl)CC[C@H]12)c1ccccc1` [LORACARBEF ANHYDROUS], the MIC worked out at 2 µg/mL (≈ 5.72 µM).
